Assay results published in patent US12012415B2, “Compositions and methods for the diagnosis, treatment and prevention of neoplastic and neurological disorders” (AscentGene, Inc., priority 2018, dated 2024).

How the values were obtained:
[1] = system: dendritic spines of the CA1 pyramidal cells; assay: Golgi-Cox staining of dendritic spines, Aβ1-42 AD rat model; type: in vivo, rats; settings: vs Aβ1-42 group
Description: Aβ1-42 (Sigma-Aldrich, St. Louis, MO, USA;) was dissolved in double-distilled water at the concentration of 5 μg/μl, and incubated at 37° C. for one week before surgery. The rats were randomly divided into four groups as Sham (n=8), Sham+AG-1601 (n=8), Aβ1-42 (n=8) and Aβ1-42+AG-1601 (n=8). The Alzheimer's disease rat models were established by intracerebroventricular (i.c.v.) injection of Aβ1-42 aggregates. The animals were anesthetized with intraperitoneal injection of pentobarbital sodium (50 mg/kg) and placed in a stereotaxic apparatus (Narishige, Japan). The head skin of the rat was opened and two small holes were drilled on both sides of skull following the coordinates: 0.8 mm posterior to bregma, +1.4 mm lateral to sagittal suture, 4.0 mm beneath the surface of brain. Aβ1-42 (2.0 μl per side) was injected bilaterally into the lateral ventricles through micro-syringe. The needle was taken out after 5 minutes of the injection to ensure the aggregates were infused completely. […]
Golgi-Cox staining method that performed according to the previously described protocol was used to determine the density of apical dendritic spines of the CA1 pyramidal cells in this study (Zhang et al., 2016). […] Six neurons in the CA1 region of hippocampus per animal were analyzed. The average dendritic spine density per 10 μm of dendritic length was calculated for each animal.

[2] = system: SIRT1 and p-CREB; assay: Western blot of SIRT1, CREB and p-CREB in hippocampus, Aβ1-42 AD rat model; type: in vivo, rats; settings: vs Aβ1-42 group
Description: Aβ1-42 (Sigma-Aldrich, St. Louis, MO, USA;) was dissolved in double-distilled water at the concentration of 5 μg/μl, and incubated at 37° C. for one week before surgery. The rats were randomly divided into four groups as Sham (n=8), Sham+AG-1601 (n=8), Aβ1-42 (n=8) and Aβ1-42+AG-1601 (n=8). The Alzheimer's disease rat models were established by intracerebroventricular (i.c.v.) injection of Aβ1-42 aggregates. The animals were anesthetized with intraperitoneal injection of pentobarbital sodium (50 mg/kg) and placed in a stereotaxic apparatus (Narishige, Japan). The head skin of the rat was opened and two small holes were drilled on both sides of skull following the coordinates: 0.8 mm posterior to bregma, +1.4 mm lateral to sagittal suture, 4.0 mm beneath the surface of brain. Aβ1-42 (2.0 μl per side) was injected bilaterally into the lateral ventricles through micro-syringe. The needle was taken out after 5 minutes of the injection to ensure the aggregates were infused completely. Rats in the Sham group underwent the same operational process, but same volumes of double-distilled water were injected instead of Aβ1-42. After surgery, all rats were injected with penicillin (100,000 U) in the hindquarter muscle to prevent infection. The animals of Sham+AG-1601 and Aβ1-42+AG-1601 groups were intravenous injection with AG-1601 (1 mg/kg), while the same volume vehicle was implemented for the other groups every day for 14 days after one week of the postoperative recovery.
Three rats of each group were randomly selected to be sacrificed and their hippocampal tissues were immediately removed at 0° C. and stored at minus 80° C. For subcellular fractionation, 100- to 200-mg weight rat hippocampal tissue was used. The procedure has been described (Yang et al., 2017). The tissues were homogenized for 30 s in 500 μl TEVP buffer containing 320 mM sucrose and the homogenate was obtained. The homogenate (H) was centrifuged at 900×g for 10 min at 4° C., and the supernatant (S1) was centrifuged for 20 min at 10000×g at 4° C. to obtain the cytosolic/light membrane fraction (S2) and the crude synaptosomal fraction pellet (P2). The pellet was resuspended in TEVP buffer containing 35.6 mM sucrose solution and then centrifuged at 25,000×g for 20 min at 4° C. The supernatant was stored at minus 80° C. and referred as the synaptic vesicular fraction (LS1). The pellet, synaptic plasma membranes (LP1), was resuspended in TEVP buffer containing 1% Triton X-100 and centrifuged at 330,000×g for 30 min at 4° C. The supernatant referred as Triton X-100-soluble fraction (TSF) was stored at minus 80° C. The final pellet, the Triton X-100-insoluble fraction (TIF), was homogenized in TEVP buffer containing 1% SDS.
The total homogenate (H) and synaptosomal fractions were analyzed. Equal amounts of 20 μg from each sample were separated via 10% or 13% SDS-PAGE gels and subsequently transferred onto PVDF membranes (Millipore, USA). […] After washing with TBST buffer, signals were visualized with the HRP substrate (Millipore, USA) and detected with a chemiluminescence kit (Tanon 5500, Tanon Science & Technology, China). The gray-scale value of protein band was quantified by NIH Image J program.

Question: Which results are given for `C=CC1=C(C)c2cc3[nH]c(cc4nc(cc5[nH]c(cc1n2)c(C)c5C=C)C(C)=C4CCC(=O)O)c(CCC(=O)NCCCc1ccccc1)c3C` [AG-1601, 3-(2,8,13,18-tetramethyl-3-(3-oxo-3-((3-phenylpropyl)amino)propyl)-12,17-divinylporphyrin-7-yl)propanoic acid]?
Answer: density of dendritic spines in the CA1 region [1]: marked reversal of the dendritic spine loss; SIRT1 protein level [2]: the decline was prevented; expression of CREB [2]: rescued the reductions; p-CREB level [2]: significantly increased; SIRT1 protein level ([2]; listed as AG-1061): this decline was prevented; p-CREB level ([2]; listed as AG-1061): significantly increased the expression of p-CREB protein
